Consider 20 compounds from patent US11802111B2, “Cyclobutyl amide monoacylglycerol lipase modulators” (Janssen Pharmaceutica NV, priority 2020, dated 2023).

SMILES strings stand for the structures.

For the assay, the target named is human MGL from HeLa cells (Homo sapiens (Human), UniProt Q99685). The assay is described as follows: MGL in vitro activity assay ([glycerol-1,3-3H]-oleoyl glycerol hydrolysis, activated carbon filtration). The class given is biochemical. The note with it: 300 nM [Glycerol-1,3-3H]-oleoyl glycerol, one hour. In short, it runs like this: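 Activity measured as tritium in the flow-through after activated carbon filtration of a 1 h reaction containing 300 nM 3H-oleoyl glycerol, compound and HeLa-derived human MGL. Compounds screened at 10 μM; IC50 series start at an empirically chosen highest concentration.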
Sequence of human MGL from HeLa cells (Q99685 whole entry): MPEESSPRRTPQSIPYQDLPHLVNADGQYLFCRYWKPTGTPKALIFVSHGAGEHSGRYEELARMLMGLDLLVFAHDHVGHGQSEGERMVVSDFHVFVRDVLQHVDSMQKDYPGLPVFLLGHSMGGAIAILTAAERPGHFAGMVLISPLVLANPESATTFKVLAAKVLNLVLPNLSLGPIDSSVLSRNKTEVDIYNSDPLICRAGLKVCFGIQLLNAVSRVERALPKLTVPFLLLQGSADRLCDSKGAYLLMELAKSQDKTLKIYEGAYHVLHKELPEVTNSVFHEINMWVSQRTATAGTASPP
The term IC50 denotes the concentration that gives 50% inhibition. Read a low IC50 as higher potency. In the case of `COc1cc(Cl)cnc1OC1CCC2(CC1)CN(C(=O)[C@H]1C[C@@](C)(O)C1)C2` [Example 463, (7-((5-Chloro-3-methoxypyridin-2-yl)oxy)-2-azaspiro[3.5]nonan-2-yl)((1s,3s)-3-hydroxy-3-methylcyclobutyl)methanone], it took 0.0097 µM to reach half-maximal inhibition (IC50).

`COc1ccnc(OC2CCC3(CC2)CN(C(=O)[C@H]2C[C@@](C)(O)C2)C3)c1Cl` [Example 464, (7-((3-Chloro-4-methoxypyridin-2-yl)oxy)-2-azaspiro[3.5]nonan-2-yl)((1s,3s)-3-hydroxy-3-methylcyclobutyl)methanone] showed an IC50 of 0.081 µM.

As to `Cc1cc(OC2CCC3(CC2)CN(C(=O)[C@H]2C[C@@](C)(O)C2)C3)nc(C)c1C(F)(F)F` [Example 465, (7-((4,6-Dimethyl-5-(trifluoromethyl)pyridin-2-yl)oxy)-2-azaspiro[3.5]nonan-2-yl)((1s,3s)-3-hydroxy-3-methylcyclobutyl)methanone], the half-inhibitory concentration (IC50) turned out to be 0.0027 µM.

For the compound `Cc1cc(C(F)(F)F)c(C)nc1OC1CCC2(CC1)CN(C(=O)[C@H]1C[C@@](C)(O)C1)C2` [Example 466, (7-((3,6-Dimethyl-5-(trifluoromethyl)pyridin-2-yl)oxy)-2-azaspiro[3.5]nonan-2-yl)((1s,3s)-3-hydroxy-3-methylcyclobutyl)methanone], the 50% inhibitory concentration (IC50) was found to be 0.0001 µM.

Consider `C[C@]1(O)C[C@@H](C(=O)N2CC3(CCC(Oc4ncc(C(F)(F)F)cn4)CC3)C2)C1` [Example 467, ((1s,3s)-3-Hydroxy-3-methylcyclobutyl)(7-((5-(trifluoromethyl)pyrimidin-2-yl)oxy)-2-azaspiro[3.5]nonan-2-yl)methanone], for which the IC50 was 0.858 µM.

`C[C@]1(O)C[C@@H](C(=O)N2CC3(CCC(Oc4ccc5c(n4)CCC5)CC3)C2)C1` [Example 468, (7-((6,7-Dihydro-5H-cyclopenta[b]pyridin-2-yl)oxy)-2-azaspiro[3.5]nonan-2-yl)((1s,3s)-3-hydroxy-3-methylcyclobutyl)methanone]: the half-inhibitory concentration (IC50) is 0.029 µM.

In turn, `Cn1ccc2ccc(OC3CCC4(CC3)CN(C(=O)[C@H]3C[C@@](C)(O)C3)C4)nc21` [Example 469, ((1s,3s)-3-Hydroxy-3-methylcyclobutyl)(7-((1-methyl-1H-pyrrolo[2,3-b]pyridin-6-yl)oxy)-2-azaspiro[3.5]nonan-2-yl)methanone] came in with an IC50 of 0.018 µM. Against the preceding compound, the IC50 is about 1.6-fold lower.

`Cc1cc(OC2CCC3(CC2)CN(C(=O)[C@H]2C[C@@](C)(O)C2)C3)nc2c1ccn2C` [Example 470, (7-((1,4-Dimethyl-1H-pyrrolo[2,3-b]pyridin-6-yl)oxy)-2-azaspiro[3.5]nonan-2-yl)((1s,3s)-3-hydroxy-3-methylcyclobutyl)methanone] showed an IC50 of 0.011 µM.

The compound `Cc1cn(C)c2nc(OC3CCC4(CC3)CN(C(=O)[C@H]3C[C@@](C)(O)C3)C4)ccc12` [Example 471, (7-((1,3-Dimethyl-1H-pyrrolo[2,3-b]pyridin-6-yl)oxy)-2-azaspiro[3.5]nonan-2-yl)((1s,3s)-3-hydroxy-3-methylcyclobutyl)methanone] gave a 50% inhibitory concentration (IC50) of 0.002 µM.

For the compound `Cc1cc2ccc(OC3CCC4(CC3)CN(C(=O)[C@H]3C[C@@](C)(O)C3)C4)nc2n1C` [Example 472, (7-((1,2-Dimethyl-1H-pyrrolo[2,3-b]pyridin-6-yl)oxy)-2-azaspiro[3.5]nonan-2-yl)((1s,3s)-3-hydroxy-3-methylcyclobutyl)methanone], 0.026 µM corresponded to half-maximal inhibition (IC50).

Consider `Cc1cc2ccn(C)c2nc1OC1CCC2(CC1)CN(C(=O)[C@H]1C[C@@](C)(O)C1)C2` [Example 473, (7-((1,5-Dimethyl-1H-pyrrolo[2,3-b]pyridin-6-yl)oxy)-2-azaspiro[3.5]nonan-2-yl)((1s,3s)-3-hydroxy-3-methylcyclobutyl)methanone], for which half-maximal inhibition (IC50) required 0.0012 µM.

With `Cn1cc(F)c2ccc(OC3CCC4(CC3)CN(C(=O)[C@H]3C[C@@](C)(O)C3)C4)nc21` [Example 474, (7-((3-Fluoro-1-methyl-1H-pyrrolo[2,3-b]pyridin-6-yl)oxy)-2-azaspiro[3.5]nonan-2-yl)((1s,3s)-3-hydroxy-3-methylcyclobutyl)methanone], it took 0.0055 µM to reach half-maximal inhibition (IC50).

The compound `CCn1cc(F)c2ccc(OC3CCC4(CC3)CN(C(=O)[C@H]3C[C@@](C)(O)C3)C4)nc21` [Example 475, (7-((1-Ethyl-3-fluoro-1H-pyrrolo[2,3-b]pyridin-6-yl)oxy)-2-azaspiro[3.5]nonan-2-yl)((1s,3s)-3-hydroxy-3-methylcyclobutyl)methanone] yielded an IC50 of 0.0046 µM.

In turn, `Cn1cc(C(F)(F)F)c2ccc(OC3CCC4(CC3)CN(C(=O)[C@H]3C[C@@](C)(O)C3)C4)nc21` [Example 476, ((1s,3s)-3-Hydroxy-3-methylcyclobutyl)(7-((1-methyl-3-(trifluoromethyl)-1H-pyrrolo[2,3-b]pyridin-6-yl)oxy)-2-azaspiro[3.5]nonan-2-yl)methanone] yielded an IC50 of 0.0014 µM.

As for `Cn1ncc2ccc(OC3CCC4(CC3)CN(C(=O)[C@H]3C[C@@](C)(O)C3)C4)nc21` [Example 477, ((1s,3s)-3-Hydroxy-3-methylcyclobutyl)(7-((1-methyl-1H-pyrazolo[3,4-b]pyridin-6-yl)oxy)-2-azaspiro[3.5]nonan-2-yl)methanone], it took 0.146 µM to reach half-maximal inhibition (IC50).

Regarding `COc1cc(C)cc(C2CC3(CCN(C(=O)[C@H]4C[C@@](C)(O)C4)CC3)C2)c1` [Example 478, ((1s,3s)-3-Hydroxy-3-methylcyclobutyl)(2-(3-methoxy-5-methylphenyl)-7-azaspiro[3.5]nonan-7-yl)methanone], 0.203 µM corresponded to half-maximal inhibition (IC50).

For `Cc1cc(C(F)(F)F)ccc1OC1CC2(CCN(C(=O)[C@H]3C[C@@](C)(O)C3)CC2)C1` [Example 479, ((1s,3s)-3-Hydroxy-3-methylcyclobutyl)(2-(2-methyl-4-(trifluoromethyl)phenoxy)-7-azaspiro[3.5]nonan-7-yl)methanone], it took 0.0031 µM to reach half-maximal inhibition (IC50). Compared with the last compound, the IC50 is about 65-fold lower.

Compound `Cc1cc(OC2CC3(CCN(C(=O)[C@H]4C[C@@](C)(O)C4)CC3)C2)ccc1C(F)(F)F` [Example 480, ((1s,3s)-3-Hydroxy-3-methylcyclobutyl)(2-(3-methyl-4-(trifluoromethyl)phenoxy)-7-azaspiro[3.5]nonan-7-yl)methanone] showed an IC50 of 0.0058 µM. Against the preceding compound, the IC50 is about 1.9-fold higher.

In the case of `Cc1cc(C(F)(F)F)cnc1OC1CC2(CCN(C(=O)[C@H]3C[C@@](C)(O)C3)CC2)C1` [Example 481, ((1s,3s)-3-Hydroxy-3-methylcyclobutyl)(2-((3-methyl-5-(trifluoromethyl)pyridin-2-yl)oxy)-7-azaspiro[3.5]nonan-7-yl)methanone], half-maximal inhibition (IC50) was put at 0.015 µM.

Regarding `Cc1nc(OC2CC3(CCN(C(=O)[C@H]4C[C@@](C)(O)C4)CC3)C2)ccc1C(F)(F)F` [Example 482, ((1s,3s)-3-Hydroxy-3-methylcyclobutyl)(2-((6-methyl-5-(trifluoromethyl)pyridin-2-yl)oxy)-7-azaspiro[3.5]nonan-7-yl)methanone], inhibition was half-maximal at 0.061 µM (IC50).
